Reference: paper PMC11329504, “Identification of novel small molecule-based strategies of COL7A1 upregulation and readthrough activity for the treatment of recessive dystrophic epidermolysis bullosa” (Scientific Reports, 2024)

Experiments:
[1] = test system: total (truncated + full length) C7 in RDEB_L1 cells; test: AlphaLISA quantification of total C7 in RDEB_L1 cells; format: cell-based, human; conditions: 20 ng/mL TGFß2; for EC50: Homo sapiens, total C7 AlphaLISA, 48 h, mean ± SD, read-out: Increase in C7 levels EC50(rel)
Protocol: (§1) The AlphaLISA assay was developed in-house by using the biotin-conjugated rabbit polyclonal antibody anti-C7 (LSBio LS-298147) and conjugating the acceptor beads (PerkinElmer 6772001) to a monoclonal anti-Collagen type VII antibody produced in mouse, clone LH7.2 (Thermo MA5-13,432). Formulation of the mAb clone LH7.2 was exchanged to PBS and concentrated 5 × by using Amicon® Ultra-0.5 centrifugal filters up to 1 mg/ml. The conjugation procedure was carried out according to the protocol provided by PerkinElmer.
(§2) For compound treatment in RDEB patient-derived transformed keratinocytes, 5,000 cells were plated in 20 µL of supplemented KGM media containing 20 ng/mL TGFβ2 (SIGMA GF113) without GA-1000 in 384-well cell culture plates (Greiner 781098). The day after, 5 µL of test compounds prepared 5 × in supplemented KGM without GA-1000 were added over cells and incubated for 48 h at 37 °C and 5% CO2. For compound treatment in HEK293^R578X, 10,000 cells were plated in 20 μL of DMEM (High Glucose, 2 mM L-Glutamine, sodium pyruvate, and FBS 10%) in 384-well cell culture plates (Greiner 781,098,). The day after, 5 μL of test compounds prepared 5 × in DMEM complete medium were added over cells and incubated for 48 h at 37 °C and 5% CO2.
(§3) After the treatment process, 2.5 µL of RIPA buffer 10 x (Abcam ab156034) were added over the […] of cells for 20 min at room temperature to obtain a complete cell lysis. Then, 2 μL of sample (i.e., cell lysate with supernatant) were transferred to the AlphaLISA plate (PerkinElmer 6,059,340) containing […] of antibodies mixture ([…] of acceptor Beads-Ab and […] of biotin-rAb) prepared in AlphaLISA buffer 1 x (PerkinElmer AL00F). The reaction was incubated for 90 min at room temperature. Finally, 10 μL of […] of donor beads (PerkinElmer 6760002,) were added to the reaction under subdued light, mixed gently, and incubated for 3 h at room temperature. AlphaLISA signal was detected with an Envision microplate reader (Perkin Elmer) using the following setting: Filter: AlphaScreen, Excitation time: 180 ms, Integration time: 300 ms.
(§4) Statistical analyses were performed using GraphPad Prism v. 7.04 (La Jolla, California). Results are shown as mean ± SD of experimental replicates. Dose–response curves to assess compound treatment effect were plotted in a four-parameter logistic model. Relative EC50, representing the total drug concentration producing a 50% effect, was calculated in the four-parameter logistic equation. Comparisons of collagen protein and mRNA expression in different experimental conditions were made using ANOVA, followed by a post hoc test. statistical significance was considered with p values < 0.05.

[2] = test system: total C7 in HEK293^R578X cells; test: AlphaLISA quantification of total C7 in recombinant HEK293^R578X cells; format: cell-based, human; conditions: for Increase in C7 levels Emax, % vs baseline: at 100 µM
Protocol: as §1, §2, §3, §4

[3] = test system: truncated and full-length C7 in RDEB_L1, RDEB_L5 and HEK293^R578X cells; test: Western blot detection of truncated and full-length C7; format: cell-based, human; conditions: RDEB_L1 and HEK293^R578X cells; 50 μM compound 7, 50 μM chuangxinmycin, 100 μM 3-methyl-chuangxinmycin
Protocol: For western blot, RDEB or normal human keratinocytes were lysed in protein extraction buffer (50 mM Tris–HCl [pH 7.5], 100 mM NaCl, 1% Nonidet P-40, and 4 mM EDTA) containing proteinase inhibitors cocktail (Complete Mini, EDTA free; Roche Diagnostics, Mannheim, Germany). Lysates were incubated for 30 min on ice and centrifuged at 15,000 g for 30 min at 4 °C. Supernatants were then collected and concentrated by ultrafiltration using Amicon Ultra columns (10 kDa; Millipore, Ireland). Protein concentrations were measured using the Bradford assay (Bio-Rad, Hercules, CA). For each sample, […] total protein was resolved on NuPAGE Novex 3%–8% Tris–Acetate gel electrophoresis (Invitrogen, Carlsbad, CA) and electrotransferred to nitrocellulose membranes (Invitrogen, Carlsbad, CA). For type VII collagen analysis, blots were probed with a monospecific polyclonal anti-C7 antibody (a generous gift from Dr. A. Nystrom, University of Freiburg). Invitrogen anti-MDH1 polyclonal antibody (PA550446, 1:1000) was used to detect MDH1. Standard antibodies against a reference protein were used as a loading control, as indicated. Visualization of the resulting signal was performed by incubating with horseradish peroxidase (HRP)- conjugated anti-rabbit antibody (Amersham, Burlington, MA) and West Pico Chemiluminescent Substrate (Pierce, Rockford, IL).

RDEB_L1 cells = test: RNAseq (HTPathwaySeq) transcriptomic profiling, GSEA; format: cell-based, human; conditions: 24 h, 20 ng/mL TGFβ2, compound 7 and 8 at the highest concentrations tested of 100 and 300 µM
Protocol: The […]®) analysis was conducted at […], Belgium) using samples provided by Almirall. A total of 376 cell lysate samples representing 4 biological replicates of 94 samples were provided to […] in four 96-well plates. On each 96-well plate, two empty wells were allocated to include […] reference samples. Samples from the same biological group were distributed over the different plates to not confound inter-plate variability with biological signal. […] The compounds were evaluated in RDEB_L1 cells in the presence of 20 ng/mL TGFβ2 to mimic RDEB physiology and in normal human keratinocytes with no TGFβ2 treatment. Cells were treated during 24 h. Controls for RDEB_L1 cells not treated with TGFβ2 and RDEB_L1 and NHK cells treated with DMSO in the absence of compounds were also included. The conditions of the assay were identical to those described for the Real-time quantitative RT-PCR (see above). For the […], over 460 M reads were generated for 376 samples of interest, resulting in about 1.22 M reads per sample on average. […] is based on a 3'-end library preparation method, and gene body read coverage is concentrated towards the 3'-end of the genes. For quality control, a selection of lysate samples was checked for gDNA contamination and RNA content using qPCR before library preparation. RNA samples were processed to generate RNA-sequencing libraries using […] procedure based on the QuantSeq (Lexogen) 3'-end library preparation workflow. The quality of a selection of samples was assessed with the 2100 Bioanalyzer instrument (Agilent). Libraries were quantified using qPCR and pooled for single-end sequencing on a NextSeq 500 (Illumina) according to […] standard operating procedure. Raw reads were mapped to the human genome (hg38) and gene expression was quantified based on the Ensembl transcriptome annotation (version 85) using […]. Raw counts were normalized using […]2 prior to differential gene expression analysis. For each cell line, samples were clustered based on log-transformed normalized counts using tSNE. A perplexity parameter of 35 and a maximum number of 1000 iterations were applied. Genes with more than 10 normalized counts in at least 3 samples were used as input. Analysis was run in R (v3.2) with a fixed seed. […] For each contrast, genes ranked by fold change were used as input. PCA was applied on the fold changes of each compound vs their associated vehicle using the 500 genes with the greatest variance. Arrows connect the different incremental dosages used on each compound to observe their differentiation patterns. Pathway enrichment and PCA were performed using R v.3.2. Pathway enrichment was analyzed with cluster profile package. The procedure followed for the cell treatments of RDEB-L1 and NHEK, was the same as that used in the RT-qPCR study. Cell lysis and sample preparation were conducted according to […] instructions: Plates of treated cells were centrifuged for 5 min at 600 g at 4 °C, and the medium was carefully removed to avoid disturbing the cells. Then, cells were washed in PBS, centrifuged and the PBS was removed again. […] After checking that cells were lysed, the samples were transferred to 96-well PCR plates, and then sealed and stored at -80 °C to be sent to […].

[4] = test system: total (truncated + full length) C7 in RDEB_L5 cells; test: AlphaLISA quantification of total C7 in RDEB_L5 cells; format: cell-based, human
Protocol: as §1, §2, §3, §4

NHK cells = test: Cytotoxicity, ATP levels, normal human keratinocytes (NHK); format: cell-based; conditions: NHK cells, ATP levels, at 50 µM
Protocol: (§5) The viability of RDEB patient-derived cell lines or NHK was evaluated by measuring the ATP levels as an indirect readout of the potential cytotoxicity effect of compounds. Cells were plated and treated exactly with the same conditions as those followed in the AlphaLISA assay, described above. To measure ATP levels, cells were processed using the ATPlite™ 1step luminescence-based assay (PerkinElmer 6,016,731), following the manufacturer’s protocol. 25 μL of ATPlite™ reagent was added directly over cells and plates were covered with a sealing film and shaken for 25 min using a microtiter plate shaker. Luminescence was measured in a Luminoskan Ascent luminometer (Thermo Fisher Scientific). 10 μM of Staurosporine was used as a reference compound and control for the total cytotoxicity.

[5] = as above; format: cell-based; conditions: human, normal human keratinocytes (NHK); NHK cells, ATP levels; read-out: Cytotox. IC50
Protocol: as §5

A2A = target: T1, A2A (Homo sapiens, UniProt P29274); test: Selectivity panel (Eurofins): A2A adenosine receptor; format: binding; conditions: Table 5, read-out: Selectivity % inhibition, A2A
T1 construct: Eurofins Pharma Discovery Services

SAPK2α = target: T2, SAPK2α (Homo sapiens, UniProt Q16539); test: Selectivity panel (Eurofins): p38/SAPK2α kinase; format: biochemical; conditions: Table 5, read-out: Selectivity % inhibition, SAPK2α
T2 construct: Eurofins Pharma Discovery Services

BZD = test: Selectivity panel (Eurofins): benzodiazepine receptor BZD; format: binding; conditions: Table 5

T2 sequence (Q16539 whole entry): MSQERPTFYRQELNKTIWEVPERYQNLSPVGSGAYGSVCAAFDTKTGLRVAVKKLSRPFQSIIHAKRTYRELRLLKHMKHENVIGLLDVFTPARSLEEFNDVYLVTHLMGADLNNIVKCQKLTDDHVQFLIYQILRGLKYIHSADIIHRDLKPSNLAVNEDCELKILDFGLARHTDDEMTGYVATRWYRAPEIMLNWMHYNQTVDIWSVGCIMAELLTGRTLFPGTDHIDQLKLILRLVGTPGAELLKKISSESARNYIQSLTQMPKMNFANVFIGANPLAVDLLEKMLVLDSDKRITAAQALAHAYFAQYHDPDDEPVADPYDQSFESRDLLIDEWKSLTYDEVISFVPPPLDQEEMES
T1 sequence (P29274 whole entry): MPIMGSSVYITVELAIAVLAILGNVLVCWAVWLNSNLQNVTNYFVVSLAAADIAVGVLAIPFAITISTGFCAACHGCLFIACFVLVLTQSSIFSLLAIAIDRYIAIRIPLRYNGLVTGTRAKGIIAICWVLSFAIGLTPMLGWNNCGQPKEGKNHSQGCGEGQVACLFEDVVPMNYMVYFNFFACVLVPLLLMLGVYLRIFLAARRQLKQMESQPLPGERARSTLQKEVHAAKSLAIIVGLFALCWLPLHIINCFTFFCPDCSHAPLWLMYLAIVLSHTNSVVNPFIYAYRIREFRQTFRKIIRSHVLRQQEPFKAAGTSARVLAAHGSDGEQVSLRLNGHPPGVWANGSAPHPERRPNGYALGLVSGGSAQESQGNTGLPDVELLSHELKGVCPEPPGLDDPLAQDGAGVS

CC1(C)c2c[nH]c3cccc(c23)S[C@H]1C(=O)O [3-methyl chuangxinmycin, 3-methyl-chuangxinmycin]
EC50 ([1]; RDEB_L1 cells): 42 µM | Increase in C7 levels Emax, % vs baseline ([1]; RDEB_L1 cells, at 100 µM): 105 ± 13 at 100 % vs baseline | EC50 ([2]; Homo sapiens, total C7 AlphaLISA, 48 h, relative EC50, mean ± SD, read-out: Increase in C7 levels EC50): 4.6 µM | Increase in C7 levels Emax, % vs baseline [2]: 58 at 100 % vs baseline | C7 products induced, western blot [3]: partially upregulated full-length C7 | modulation of GO terms related to NMD, readthrough, translation and unfolded protein response (RDEB_L1 cells): Neither compound 1 nor chuangxinmycin nor 3-methyl-chuangxinmycin showed any impact on these pathways

C[C@H]1c2c[nH]c3cccc(c23)S[C@H]1C(=O)O [Chuangxinmycin, chuangxinmycin]
Increase in C7 levels Emax, % vs baseline ([1]; RDEB_L1 cells, at 50 µM): 22 ± 3 at 50 % vs baseline | C7 products induced, western blot [3]: partially upregulated full-length C7 | modulation of GO terms related to NMD, readthrough, translation and unfolded protein response (RDEB_L1 cells): Neither compound 1 nor chuangxinmycin nor 3-methyl-chuangxinmycin showed any impact on these pathways

Nc1ncc(-c2ccc3cnn(CCO)c3c2)nc1C(=O)NC1C2CC3CC1CC(O)(C3)C2 (centres unmarked) [Compound 3]
EC50 ([1]; RDEB_L1 cells): 1.9 ± 0.12 µM | Increase in C7 levels Emax, % vs baseline ([1]; RDEB_L1 cells, at 3.1 µM): 2083 ± 29 at 3.1 % vs baseline | EC50 ([4]; Homo sapiens, total C7 AlphaLISA, 48 h, 20 ng/mL TGFß2, relative EC50, mean ± SD, read-out: Increase in C7 levels EC50): 3.1 ± 0.008 µM | Increase in C7 levels Emax, % vs baseline ([4]; at 1.25 µM, 20 ng/mL TGFß2): 717 ± 229 at 1.25 % vs baseline | Cytotox. % inhibition of viability (NHK cells): 58% ± 13 at 50 (n=2)

C#Cc1nc(-c2ccncc2)c(-c2ccco2)nc1N [Compound 8]
EC50 ([1]; RDEB_L1 cells): 40 ± 13 µM | Increase in C7 levels Emax, % vs baseline ([1]; RDEB_L1 cells, at 100 µM): 86 ± 13.9 at 100 % vs baseline | Increase in C7 levels Emax, % vs baseline [2]: 10± 13 at 100 % vs baseline | IC50 [5]: 31 ± 4.1 µM | modulation of GO terms related to NMD, readthrough, translation and unfolded protein response (RDEB_L1 cells): modulating genes specifically related to cytoplasmic translation and the ribosome

Nc1cnc(-c2ccncc2)c(-c2cccc(F)c2)n1 [Compound 10]
Increase in C7 levels Emax, % vs baseline ([1]; Table 5 SAR, at 50 μM): 2.1 ± 16 at 50 % vs baseline | inhibition at 3 µM (A2A; at 3 μM): 104% | inhibition at 10 µM (A2A; at 10 μM): 103% | inhibition at 30 µM (A2A; at 30 μM): 104% | inhibition at 3 µM (SAPK2α; at 3 μM): 36% | inhibition at 10 µM (SAPK2α; at 10 μM): 162% | inhibition at 30 µM (SAPK2α; at 30 μM): 88% | Selectivity % inhibition, BZD (BZD; at 3 μM): 0% | Selectivity % inhibition, BZD (BZD; at 10 μM): 0% | Selectivity % inhibition, BZD (BZD; at 30 μM): 9%
